The nature of the assay: UV–Vis titration of HL-CH3 with Fe(ClO4)2, binding constant. Conditions: Fe(II); 0.1 mM ligand, 5% v/v MeOH/BBS 50 mM, pH 7.4. On the procedure: To evaluate the selectivity of these ligands towards copper, the same titrations were performed with different metal salts: Fe(ClO4)2, Mn(ClO4)2, and Zn(ClO4)2, monitoring the methyl-substituted ligand (Figures S39–S41). These metal ions were chosen because they are also divalent and common in biological matrixes.
For the determination of the binding constant between metals and ligands, a solution of the latter was titrated with 0.2 eq of metal for each addition. The titrating solutions were 10 mM and 100 μM for Cu(ClO4)2 versus 0.1 mM and 1 μM for the ligands in 5% v/v MeOH/BBS (50 mM, pH 7.4), respectively. […] The absorbance variation was monitored from 200 nm to 800 nm at 25 °C. […]
UV-vis spectra of ligands and complexes were recorded in a quartz cuvette, with 1 cm of optical path. […]
The titrating solutions were 10 mM and 100 μM for Cu(ClO4)2 versus 0.1 mM and 1 μM for the ligands in 5% v/v MeOH/BBS (50 mM, pH 7.4), respectively. […] The absorbance variation was monitored from 200 nm to 800 nm with a Varian Cary 50 instrument, thermostated at 25 °C.
The binding constants were then determined by nonlinear regression analysis of the plot “ΔAbs/b vs Cu(II) concentration” (Equation 7 ), according to K. Connors, The Measurement of Molecular Complex Stability, Madison, Wisconsin, Wiley, 1987[5]. […]
ΔA: absorbance at a certain wavelength. […]

In the case of `Cc1cc(CN(Cc2ccccn2)Cc2ccccn2)c(O)c(CN(Cc2ccccn2)Cc2ccccn2)c1` [HL-CH3, 2,6-bis[(bis(2-pyridylmethyl)amino)methyl]-4-methylphenol], the Kbind is recorded as 1.09 × 10^8 M^−2 and the “log(Kbind)” value came to 8.03.

Source of the values: PMC11643690, “Chelating Properties of N6O-Donors Toward Cu(II) Ions: Speciation in Aqueous Environments and Catalytic Activity of the Dinuclear Complexes” (Molecules, 2024).
